Values after ≈ are worked out from the molar mass of the structure shown. Where two headings read alike, the source gives them in different places.
Key:
[1] = system: C. albicans CA1; assay: Microbroth dilution MIC80; format: cell-based; settings: Candida albicans, CA1
Text: (§1) Compound library. The thiosemicarbazone derivatives Triapine and COTI-2 were purchased from Med Chem Express (MCE). The other 87 thiosemicarbazones used in this study were previously synthesized by our collaborators (1, 2). Their structures are shown in Table 1 and Table S1 to help the reader clearly understand the relationship between structure and activity.
(§2) Strains and culture conditions. Clinically derived C. albicans isolates, including G5, F5, and Gu5, were kindly provided by Professor Joachim Morschhäuser of the University of Würzburg. Other clinical C. albicans isolates were kindly donated by Professor Qingguo Qi of Shandong University and Qianfoshan Hospital of Shandong Province Other Candida strains were obtained from Jinan Central Hospital.
(§3) The zap1 mutant and its complemented strain were kindly provided by Professor Aaron P. Mitchell of Carnegie Mellon University (3). The C. neoformans strains used in this study was kindly donated by Professor Guojian Liao of Southwest University and A. fumigatus strain used in this study was provided by Professor Ling Lu of Nanjing Normal University. Before in vitro and in vivo experiments, all C. albicans strains were grown on YPD agar plates. After culturing at 30°C for 24 h, colonies of each strain were cultured in liquid YPD medium at 30°C with continuous shaking […]
(§4) Antifungal susceptibility testing. To determine in vitro antifungal activities, the microbroth dilution method was carried out in RPMI1640 medium according to the guidelines of the Clinical and Laboratory Standards Institute (4, 5). The initial concentration in RPMI1640 medium was 1 × 10^3 CFU/mL for the C. albicans and C. neoformans suspensions but 1 × 10^4 CFU/mL for A. fumigatus. The range of final drug concentrations was 0.0156–64 μg/mL. The plates were incubated at35°C for 24 […]
(§5) h (for C. albicans, C. krusei, C. tropicalis, C. parapsilosis) or 48 h (for C. neoformans, A. fumigatus). The MIC was determined based on visible growth inhibition compared with the control. All experiments were performed in duplicate. […]

[2] = system: A. fumigatus 1161; assay: Microbroth dilution MIC80; format: cell-based; settings: Aspergillus fumigatus
Text: as §1, §2, §3, §4, §5

[3] = system: C. albicans DSY654; assay: Microbroth dilution MIC80; format: cell-based; settings: Candida albicans
Text: as §1, §2, §3, §4, §5

[4] = system: C. albicans CA3; assay: Microbroth dilution MIC80; format: cell-based; settings: Candida albicans, CA3
Text: as §1, §2, §3, §4, §5

[5] = system: C. albicans F5; assay: Microbroth dilution MIC80; format: cell-based; settings: Candida albicans, F5
Text: as §1, §2, §3, §4, §5

[6] = system: C. neoformans 108; assay: Microbroth dilution MIC80; format: cell-based; settings: Cryptococcus neoformans, 108
Text: as §1, §2, §3, §4, §5

[7] = system: C. albicans 28A; assay: Microbroth dilution MIC80; format: cell-based; settings: Candida albicans, 28A
Text: as §1, §2, §3, §4, §5

[8] = system: C. albicans YEM13; assay: Microbroth dilution MIC80; format: cell-based; settings: Candida albicans
Text: as §1, §2, §3, §4, §5

[9] = system: C. albicans 24g; assay: Microbroth dilution MIC80; format: cell-based; settings: Candida albicans, 24G
Text: as §1, §2, §3, §4, §5

[10] = system: C. albicans 28I; assay: Microbroth dilution MIC80; format: cell-based; settings: Candida albicans, 28I
Text: as §1, §2, §3, §4, §5

[11] = system: C. tropicalis CT2; assay: Microbroth dilution MIC80; format: cell-based; settings: Candida tropicalis, CT2
Text: as §1, §2, §3, §4, §5

[12] = system: C. albicans YEM15; assay: Microbroth dilution MIC80; format: cell-based; settings: Candida albicans, YEM15
Text: as §1, §2, §3, §4, §5

[13] = system: C. albicans 28D; assay: Microbroth dilution MIC80; format: cell-based; settings: Candida albicans, 28D
Text: as §1, §2, §3, §4, §5

[14] = system: C. albicans 11e; assay: Microbroth dilution MIC80; format: cell-based; settings: Candida albicans, 11E
Text: as §1, §2, §3, §4, §5

[15] = system: C. albicans CA4; assay: Microbroth dilution MIC80; format: cell-based; settings: Candida albicans, CA4
Text: as §1, §2, §3, §4, §5

[16] = system: C. albicans 11f; assay: Microbroth dilution MIC80; format: cell-based; settings: Candida albicans, 11F
Text: as §1, §2, §3, §4, §5

[17] = system: C. neoformans H99; assay: Antifungal susceptibility testing, microbroth dilution MIC; format: cell-based; settings: Cryptococcus neoformans, H99; C. neoformans wild-type strain; 48 h; read-out: MIC (μg/mL) against fungi H99
Text: as §1, §2
(§6) The zap1 mutant and its complemented strain were kindly provided by Professor Aaron P. Mitchell of Carnegie Mellon University (3). The C. neoformans strains used in this study was kindly donated by Professor Guojian Liao of Southwest University and A. fumigatus strain used in this study was provided by Professor Ling Lu of Nanjing Normal University. […]
as §4, §5

[18] = system: A. fumigatus AF293; assay: as above; format: cell-based; settings: Aspergillus fumigatus, AF293; standard strain of A. fumigatus; 48 h; read-out: MIC (μg/mL) against fungi AF293
Text: as §1, §2, §6, §4, §5

[19] = system: C. albicans SC5314; assay: as above; format: cell-based; settings: Candida albicans, SC5314; C. albicans wild-type strain; RPMI1640, 35°C, 24 h; read-out: MIC (μg/mL) against fungi SC5314
Text: as §1, §2, §3, §4, §5

[20] = system: C. albicans G5; assay: microbe, parasite or virus in culture; format: cell-based; settings: Candida albicans, G5
Text: as §1, §2, §3, §4, §5

[21] = system: C. albicans Gu5; assay: microbe, parasite or virus in culture; format: cell-based; settings: Candida albicans, GU5
Text: as §1, §2, §3, §4, §5

[22] = Cytotoxicity testing (MTT); format: cell-based, human; settings: human, HepG2 cells (hepatocellular carcinoma cell line)
[23] = system: human hepatocellular carcinoma cell line HepG2; assay: Cytotoxicity testing (MTT); format: cell-based; settings: ratio of IC50 against HepG2 to MIC80 against C. albicans SC5314
[24] = system: C. albicans SC5314; assay: Minimal fungicidal concentration (MFC); format: cell-based; settings: Candida albicans, read-out: MFC against C. albicans SC5314
[25] = system: human bronchial epithelial cell line 16HBE; assay: Cytotoxicity testing (MTT); format: cell-based; settings: ratio of IC50 against 16HBE to MIC80 against C. albicans SC5314
Procedure: (§7) h (for C. albicans, C. krusei, C. tropicalis, C. parapsilosis) or 48 h (for C. neoformans, A. fumigatus). The MIC was determined based on visible growth inhibition compared with the control. All experiments were performed in duplicate.
(§8) Cytotoxicity testing. The cell lines HK2 and 16HBE were used to evaluate the cytotoxicity of 19ak, 19k and 19t. Cells in DMEM containing 10% fetal bovine serum (Gibco) were seeded in 96-well tissue culture plates at a cell density of 1 × 10^4 cells/mL and incubated for 24 h to allow adhesion. The supernatant was then replaced with fresh DMEM containing various concentrations of 19ak, 19k and 19t. The plates were subsequently incubated for an additional 48 h at 37°C with 5% CO2, followed by the addition of 10 μL of MTT solution to each well and incubation at 37°C for 4 h.
(§9) The effects of the compounds on cell proliferation were detected by measuring the absorbance at 570 nm in a microplate reader (BioTek, VT, USA). Three independent experiments were conducted. […]

[26] = system: human renal epithelial cell line HK2; assay: Cytotoxicity testing (MTT); format: cell-based; settings: ratio of IC50 against HK2 to MIC80 against C. albicans SC5314
Procedure: as §7, §8, §9

[27] = Cytotoxicity testing (MTT); format: cell-based, human; settings: human, 48 h, MTT
Procedure: as §7, §8, §9

[28] = system: C. krusei CK1; assay: Microbroth dilution MIC80; format: cell-based, Candida krusei; settings: Pichia kudriavzevii, CK1
Text: as §1, §2, §3, §4, §5

[29] = system: C. parapsilosis CP001; assay: Microbroth dilution MIC80; format: cell-based, Candida parapsilosis; settings: Lodderomyces parapsilosis, CP001
Text: as §1, §2, §3, §4, §5

S=C(N/N=C/c1ccc(Br)cn1)Nc1ccc(Br)cc1 [Compound 19k] gave an MIC80 [1] of 1 µg/mL (≈ 2.41 µM), an MIC80 [2]; 1161 of 0.5 µg/mL (≈ 1.21 µM) and an MIC80 [3] of 1 µg/mL (≈ 2.41 µM). For the same compound, the MIC80 [4] was 1 µg/mL (≈ 2.41 µM), the MIC80 [5] was 1 µg/mL (≈ 2.41 µM) and the MIC80 [6] was 0.031 µg/mL (≈ 0.0749 µM). The MIC80 [7] was 2 µg/mL (≈ 4.83 µM), the MIC80 [8] was 2 µg/mL (≈ 4.83 µM) and the MIC80 [9] was 1 µg/mL (≈ 2.41 µM). The MIC80 [10] was 1 µg/mL (≈ 2.41 µM), the MIC80 [11] was 2 µg/mL (≈ 4.83 µM) and the MIC80 [12] was 2 µg/mL (≈ 4.83 µM). The MIC80 [13] was 1 µg/mL (≈ 2.41 µM), the MIC80 [14] was 2 µg/mL (≈ 4.83 µM) and the MIC80 [15] was 0.5 µg/mL (≈ 1.21 µM). The MIC80 [16] was 2 µg/mL (≈ 4.83 µM), the MIC [17] was 0.031 µg/mL (≈ 0.0749 µM) and the MIC [18] was 8 µg/mL (≈ 19.3 µM). The MIC [19] was 1 µg/mL (≈ 2.41 µM), the MIC80 [20] was 4 µg/mL (≈ 9.66 µM) and the MIC80 [21] was 2 µg/mL (≈ 4.83 µM). The IC50 [22] was 28 µg/mL (≈ 67.6 µM), the “Selectivity index HepG2” value [23] was 28 and the MFC [24] was > 64 µg/mL. For the same compound, the “Selectivity index 16HBE” value [25] was 36.43, the “Selectivity index HK2” value [26] was 63.88 and the IC50 at 48 h ([27]; 16HBE cells (bronchial epithelial cell line), 16HBE cells) was 36.4 µg/mL (≈ 88 µM). It also gave an IC50 at 48 h ([27]; HK2 cells (renal epithelial cell line), HK2 cells) of 63.9 µg/mL (≈ 154 µM), an MIC80 [28] of 4 µg/mL (≈ 9.66 µM) and an MIC80 [29] of 2 µg/mL (≈ 4.83 µM).
Compound C[C@@H](c1ncncc1F)[C@](O)(Cn1cncn1)c1ccc(F)cc1F [VOR, voriconazole, reference compound] has an MIC80 ([2]; A. fumigatus 1161, read-out: MIC80) of 0.25 µg/mL (≈ 0.716 µM) and an MIC [18] of 0.25 µg/mL (≈ 0.716 µM).

— paper PMC9241695, “Selective Metal Chelation by a Thiosemicarbazone Derivative Interferes with Mitochondrial Respiration and Ribosome Biogenesis in Candida albicans” (Microbiology Spectrum, 2022)
